Assay results: ChEMBL document CHEMBL5303573, “Mapping human microbiome drug metabolism by gut bacteria and their genes” (Nature, 2019)

How the values were obtained:
Assay type in all cases: ADME
Parameters in all cases: dose 2 uM
Details in all cases: 2 µM
[1] = molecular target: T1, Nitroreductase domain-containing protein (Phocaeicola dorei, UniProt B6W3P3); assay: (§1) The drug is tested on Bacteroides dorei strain: DSM17855 for biotransformation. The drug concentrations were measured before and after a 12-h incubation by liquid-chromatography-coupled mass spectrometry (LC–MS)
T1 sequence (B6W3P3 whole entry): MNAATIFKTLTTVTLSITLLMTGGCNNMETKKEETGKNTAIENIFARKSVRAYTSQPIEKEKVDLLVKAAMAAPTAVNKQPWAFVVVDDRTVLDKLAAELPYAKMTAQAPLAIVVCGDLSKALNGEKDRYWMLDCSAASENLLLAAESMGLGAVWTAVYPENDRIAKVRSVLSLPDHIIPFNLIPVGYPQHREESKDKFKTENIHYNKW

[2] = molecular target: T2, SGNH hydrolase-type esterase domain-containing protein (Phocaeicola dorei, UniProt B6W1J1); assay: as §1
T2 sequence (B6W1J1 whole entry): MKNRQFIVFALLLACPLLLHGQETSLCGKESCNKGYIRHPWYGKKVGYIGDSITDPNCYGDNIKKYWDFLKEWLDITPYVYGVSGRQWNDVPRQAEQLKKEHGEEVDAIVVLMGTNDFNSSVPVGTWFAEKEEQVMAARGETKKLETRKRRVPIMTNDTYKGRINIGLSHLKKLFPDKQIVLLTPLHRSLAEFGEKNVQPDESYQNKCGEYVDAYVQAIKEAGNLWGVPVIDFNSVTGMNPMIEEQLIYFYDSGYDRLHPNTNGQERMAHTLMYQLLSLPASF

[3] = molecular target: T3, Nitroreductase domain-containing protein (Phocaeicola dorei, UniProt B6VU18); assay: as §1
T3 sequence (B6VU18 whole entry): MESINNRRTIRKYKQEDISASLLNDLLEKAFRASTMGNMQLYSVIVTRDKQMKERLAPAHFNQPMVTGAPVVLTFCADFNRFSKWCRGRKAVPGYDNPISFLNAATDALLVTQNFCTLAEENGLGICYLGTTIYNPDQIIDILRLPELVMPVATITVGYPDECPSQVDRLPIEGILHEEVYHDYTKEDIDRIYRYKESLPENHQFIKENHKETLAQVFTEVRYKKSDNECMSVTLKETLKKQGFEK

Esterase = molecular target: T4, Esterase (Phocaeicola dorei, UniProt B6W2J6); assay: as §1
T4 sequence (B6W2J6 whole entry): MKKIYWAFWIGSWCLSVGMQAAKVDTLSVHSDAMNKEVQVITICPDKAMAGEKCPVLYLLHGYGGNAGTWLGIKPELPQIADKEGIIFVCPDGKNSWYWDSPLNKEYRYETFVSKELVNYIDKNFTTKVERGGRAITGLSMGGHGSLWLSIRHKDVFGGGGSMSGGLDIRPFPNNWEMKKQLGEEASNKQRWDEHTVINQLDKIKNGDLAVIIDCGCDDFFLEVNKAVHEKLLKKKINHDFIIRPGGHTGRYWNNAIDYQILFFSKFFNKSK

[4] = molecular target: T5, Acyltransferase 3 domain-containing protein (Phocaeicola dorei, UniProt B6W2J3); assay: as §1
T5 sequence (B6W2J3 whole entry): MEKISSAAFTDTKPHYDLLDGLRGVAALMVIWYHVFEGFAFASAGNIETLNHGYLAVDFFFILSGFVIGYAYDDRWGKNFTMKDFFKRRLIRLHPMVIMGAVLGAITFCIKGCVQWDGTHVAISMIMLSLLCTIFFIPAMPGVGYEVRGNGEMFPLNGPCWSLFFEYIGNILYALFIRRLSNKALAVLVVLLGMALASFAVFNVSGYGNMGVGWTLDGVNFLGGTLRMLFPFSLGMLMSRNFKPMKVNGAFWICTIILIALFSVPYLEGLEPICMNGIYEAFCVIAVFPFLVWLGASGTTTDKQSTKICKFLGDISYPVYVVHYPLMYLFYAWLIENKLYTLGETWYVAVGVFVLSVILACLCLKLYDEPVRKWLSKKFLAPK

[5] = molecular target: T6, SGNH hydrolase-type esterase domain-containing protein (Phocaeicola dorei, UniProt B6VTE7); assay: as §1
T6 sequence (B6VTE7 whole entry): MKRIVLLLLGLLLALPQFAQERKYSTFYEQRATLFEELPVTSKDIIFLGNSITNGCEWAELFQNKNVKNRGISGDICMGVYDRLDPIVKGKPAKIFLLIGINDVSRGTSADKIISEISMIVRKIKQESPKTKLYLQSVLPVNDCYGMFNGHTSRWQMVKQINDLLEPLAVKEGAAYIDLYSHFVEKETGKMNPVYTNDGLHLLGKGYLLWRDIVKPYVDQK

[6] = molecular target: T7, Sialic acid-specific acetylesterase (Bacteroides thetaiotaomicron, UniProt Q8A331); assay: (§2) The drug is tested on Bacteroides thetaiotaomicron strain: VPI-5482 for biotransformation. The drug concentrations were measured before and after a 12-h incubation by liquid-chromatography-coupled mass spectrometry (LC–MS)
T7 sequence (Q8A331 whole entry): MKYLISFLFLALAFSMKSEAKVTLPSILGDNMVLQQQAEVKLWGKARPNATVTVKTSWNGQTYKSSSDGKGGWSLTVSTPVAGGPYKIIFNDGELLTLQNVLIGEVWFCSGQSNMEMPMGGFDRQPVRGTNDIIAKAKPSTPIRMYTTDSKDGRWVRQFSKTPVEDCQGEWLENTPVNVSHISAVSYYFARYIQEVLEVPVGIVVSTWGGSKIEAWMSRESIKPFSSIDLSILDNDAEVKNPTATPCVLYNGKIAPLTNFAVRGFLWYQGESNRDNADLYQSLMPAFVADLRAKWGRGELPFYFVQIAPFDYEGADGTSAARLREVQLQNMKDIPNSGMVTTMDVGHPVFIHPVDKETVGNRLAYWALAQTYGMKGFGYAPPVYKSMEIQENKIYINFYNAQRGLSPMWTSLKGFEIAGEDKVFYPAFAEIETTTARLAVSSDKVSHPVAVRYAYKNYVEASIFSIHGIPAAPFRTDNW

[7] = molecular target: T8, Sialic acid-specific 9-O-acetylesterase (Bacteroides thetaiotaomicron, UniProt Q8A0D0); assay: as §2
T8 sequence (Q8A0D0 whole entry): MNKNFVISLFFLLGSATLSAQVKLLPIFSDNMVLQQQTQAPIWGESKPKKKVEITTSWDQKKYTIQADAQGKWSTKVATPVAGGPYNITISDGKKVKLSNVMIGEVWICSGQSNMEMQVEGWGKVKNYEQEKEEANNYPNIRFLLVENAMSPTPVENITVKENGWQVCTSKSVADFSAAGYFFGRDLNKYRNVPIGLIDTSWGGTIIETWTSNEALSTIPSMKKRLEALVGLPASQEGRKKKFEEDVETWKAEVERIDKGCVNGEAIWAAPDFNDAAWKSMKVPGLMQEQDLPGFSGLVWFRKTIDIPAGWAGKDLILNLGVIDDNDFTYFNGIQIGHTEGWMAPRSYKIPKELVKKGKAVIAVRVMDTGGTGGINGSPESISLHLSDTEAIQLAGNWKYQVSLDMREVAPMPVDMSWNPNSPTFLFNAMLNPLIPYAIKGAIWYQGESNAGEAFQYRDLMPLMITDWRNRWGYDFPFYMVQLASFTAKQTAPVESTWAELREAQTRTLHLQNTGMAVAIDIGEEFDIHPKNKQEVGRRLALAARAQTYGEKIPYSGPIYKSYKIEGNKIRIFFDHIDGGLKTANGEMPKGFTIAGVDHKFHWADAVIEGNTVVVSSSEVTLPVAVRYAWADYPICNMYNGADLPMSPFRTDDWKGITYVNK

Row | Compound | Bacterial Biotransformation [1] | Bacterial Biotransformation [2] | Bacterial Biotransformation [3] | Bacterial Biotransformation (Esterase) | Bacterial Biotransformation [4] | Bacterial Biotransformation [5] | Bacterial Biotransformation [6] | Bacterial Biotransformation [7]
1 | C[C@@H]1CC[C@H]2[C@@H](C)C(=O)O[C@@H]3O[C@@]4(C)CC[C@@H]1[C@]32OO4 [ARTEMISININ] | Compound NOT metabolized | Compound NOT metabolized | Compound NOT metabolized | Compound NOT metabolized | Compound NOT metabolized | Compound NOT metabolized | Compound NOT metabolized | Compound NOT metabolized
2 | CC(=O)Oc1ccc(C(c2ccc(OC(C)=O)cc2)c2ccccn2)cc1 [BISACODYL] | Compound NOT metabolized | Compound metabolized | Compound NOT metabolized | Compound metabolized | Compound NOT metabolized | Compound metabolized | Compound metabolized | Compound metabolized
3 | CC(=O)OCC(=O)[C@@]12N=C(C)O[C@@H]1C[C@H]1[C@@H]3CCC4=CC(=O)C=C[C@]4(C)[C@H]3[C@@H](O)C[C@@]12C [DEFLAZACORT] | Compound NOT metabolized | – | Compound NOT metabolized | Compound NOT metabolized | Compound NOT metabolized | – | – | Compound NOT metabolized
4 | CC(=O)Nc1ccc(OC(C)=O)cc1 [DIACETAMATE] | Compound NOT metabolized | Compound metabolized | Compound NOT metabolized | Compound metabolized | Compound NOT metabolized | Compound metabolized | Compound metabolized | Compound metabolized
5 | CCN(CC)C(=O)/C(C#N)=C/c1cc(O)c(O)c([N+](=O)[O-])c1 [ENTACAPONE] | Compound NOT metabolized | Compound NOT metabolized | Compound NOT metabolized | Compound NOT metabolized | Compound NOT metabolized | Compound NOT metabolized | Compound NOT metabolized | Compound NOT metabolized
6 | Nc1ccc(/N=N/c2ccccc2)c(N)n1 [PHENAZOPYRIDINE] | Compound NOT metabolized | Compound NOT metabolized | Compound NOT metabolized | Compound NOT metabolized | Compound NOT metabolized | Compound NOT metabolized | Compound NOT metabolized | Compound NOT metabolized
7 | O=C(O)c1cc(/N=N/c2ccc(S(=O)(=O)Nc3ccccn3)cc2)ccc1O [SULFASALAZINE] | Compound NOT metabolized | Compound NOT metabolized | Compound NOT metabolized | Compound NOT metabolized | Compound NOT metabolized | Compound NOT metabolized | Compound NOT metabolized | Compound NOT metabolized

The next lines start with the values.

Row | Bacterial Biotransformation [1] | Bacterial Biotransformation [2] | Bacterial Biotransformation [3] | Bacterial Biotransformation (Esterase) | Bacterial Biotransformation [4] | Bacterial Biotransformation [5] | Bacterial Biotransformation [6] | Bacterial Biotransformation [7] | Compound
8 | Compound NOT metabolized | Compound NOT metabolized | Compound NOT metabolized | Compound NOT metabolized | Compound NOT metabolized | Compound NOT metabolized | Compound NOT metabolized | Compound NOT metabolized | C#C[C@]1(O)CC[C@H]2[C@@H]3CCC4=Cc5oncc5C[C@]4(C)[C@H]3CC[C@@]21C [DANAZOL]
9 | Compound metabolized | Compound NOT metabolized | Compound metabolized | Compound NOT metabolized | Compound NOT metabolized | Compound NOT metabolized | Compound NOT metabolized | Compound NOT metabolized | CCOC(=O)C1=C(C)NC(C)=C(C(=O)OC)C1c1cccc([N+](=O)[O-])c1 (stereo not drawn) [NITRENDIPINE]
10 | Compound NOT metabolized | Compound metabolized | Compound NOT metabolized | Compound metabolized | Compound NOT metabolized | Compound metabolized | Compound NOT metabolized | Compound NOT metabolized | COc1ccnc(C[S+]([O-])c2nc3ccc(OC(F)F)cc3[nH]2)c1OC (stereo not drawn) [PANTOPRAZOLE]
11 | Compound NOT metabolized | Compound NOT metabolized | Compound NOT metabolized | Compound NOT metabolized | Compound NOT metabolized | Compound NOT metabolized | Compound metabolized | Compound metabolized | CC(=O)SCC(Cc1ccccc1)C(=O)NCC(=O)OCc1ccccc1 (stereo not drawn) [RACECADOTRIL]
12 | Compound NOT metabolized | Compound NOT metabolized | Compound NOT metabolized | Compound NOT metabolized | Compound NOT metabolized | Compound NOT metabolized | Compound NOT metabolized | Compound NOT metabolized | CC(=O)OCC(=O)NCCCOc1cccc(CN2CCCCC2)c1 [ROXATIDINE ACETATE]
